From article PMC9604400, “Synthesis, Anticancer and Antitubercular Properties of New Chalcones and Their Nitrogen-Containing Five-Membered Heterocyclic Hybrids Bearing Sulfonamide Moiety” (International Journal of Molecular Sciences, 2022)

Assays:
T-47D = test: NCI-60 screen (SRB), breast cancer; details: Homo sapiens, T47D
MALME-3M = test: NCI-60 screen (SRB), melanoma; details: Homo sapiens
CCRF-CEM = test: NCI-60 screen (SRB), leukemia; details: Homo sapiens
UO-31 = test: NCI-60 screen (SRB), renal cancer; details: Homo sapiens
HCT-116 = test: NCI-60 screen (SRB), colon cancer; details: Homo sapiens
U251 = test: NCI-60 screen (SRB), CNS cancer; details: Homo sapiens
OVCAR-4 = test: NCI-60 screen (SRB), ovarian cancer; details: Homo sapiens
SK-MEL-2 = test: NCI-60 screen (SRB), melanoma; details: Homo sapiens
HOP-92 = test: NCI-60 screen (SRB), non-small cell lung cancer; details: Homo sapiens
SN12C = test: NCI-60 screen (SRB), renal cancer; details: Homo sapiens
SF-539 = test: NCI-60 screen (SRB), CNS cancer; details: Homo sapiens
COLO 205 = test: NCI-60 screen (SRB), colon cancer; details: Homo sapiens
MDA-MB-435 = test: NCI-60 screen (SRB), melanoma; details: Homo sapiens
RXF 393 = test: NCI-60 screen (SRB), renal cancer
LOX IMVI = test: NCI-60 screen (SRB), melanoma; details: Homo sapiens
SF-295 = test: NCI-60 screen (SRB), CNS cancer; details: Homo sapiens
786-0 = test: NCI-60 screen (SRB), renal cancer; details: Homo sapiens
NCI-H460 = test: NCI-60 screen (SRB), non-small cell lung cancer
SW-620 = test: NCI-60 screen (SRB), colon cancer; details: Homo sapiens
OVCAR-5 = test: NCI-60 screen (SRB), ovarian cancer; details: Homo sapiens
MDA-MB-468 = test: NCI-60 screen (SRB), breast cancer
MDA-MB-231/ATCC = test: NCI-60 screen (SRB), breast cancer; details: Homo sapiens
SNB-75 = test: NCI-60 screen (SRB), CNS cancer; details: Homo sapiens
RPMI-8226 = test: NCI-60 screen (SRB), leukemia; details: Homo sapiens
KM12 = test: NCI-60 screen (SRB), colon cancer; details: Homo sapiens
EKVX = test: NCI-60 screen (SRB), non-small cell lung cancer; details: Homo sapiens
A549/ATCC = test: NCI-60 screen (SRB), non-small cell lung cancer; details: Homo sapiens
K-562 = test: NCI-60 screen (SRB), leukemia; details: Homo sapiens
DU-145 = test: NCI-60 screen (SRB), prostate cancer; details: Homo sapiens
HT29 = test: NCI-60 screen (SRB), colon cancer; details: Homo sapiens
IGROV1 = test: NCI-60 screen (SRB), ovarian cancer; details: Homo sapiens
colon cancer cell lines = test: NCI-60 screen (SRB), colon cancer panel; assay type: cell-based; details: Homo sapiens, single dose 10 μM, read-out: GI (growth inhibition), range over panel
SNB-19 = test: NCI-60 screen (SRB), CNS cancer; details: Homo sapiens

COc1cc(OC)c(S(N)(=O)=O)cc1C(=O)/C=C/c1ccc(C)cc1 [Compound 17c, (E)-2,4-Dimethoxy-5-(3-(p-tolyl)acryloyl)benzenesulfonamide]
IC50 (T-47D): 2.32 µM | CC50 (T-47D; read-out: LC50): 44.8 µM | IC50 (MALME-3M): 8.55 µM | CC50 (MALME-3M; read-out: LC50): 59.5 µM | IC50 (CCRF-CEM): 3.99 µM | CC50 (CCRF-CEM; read-out: LC50): > 100 µM | IC50 (UO-31; UO-31): 3.46 µM | CC50 (UO-31; UO-31, read-out: LC50): 38.1 µM | IC50 (HCT-116; HCT-116): 30.6 µM | CC50 (HCT-116; HCT-116, read-out: LC50): 58 µM | IC50 (U251; U-251): 2.66 µM | CC50 (U251; U-251, read-out: LC50): 32.7 µM | IC50 (OVCAR-4; OVCAR-4): 3.66 µM | CC50 (OVCAR-4; OVCAR-4, read-out: LC50): 53.2 µM | IC50 (SK-MEL-2; SK-MEL-2): 11.5 µM | CC50 (SK-MEL-2; SK-MEL-2, read-out: LC50): 55.7 µM | IC50 (HOP-92; HOP-92): 2.3 µM | CC50 (HOP-92; HOP-92, read-out: LC50): 35.4 µM | IC50 (SN12C): 2.95 µM | CC50 (SN12C; read-out: LC50): 38.8 µM | IC50 (SF-539; SF-539): 2.17 µM | CC50 (SF-539; SF-539, read-out: LC50): 14.4 µM | IC50 (COLO 205; COLO 205): 3.33 µM | CC50 (COLO 205; COLO 205, read-out: LC50): 41.7 µM | IC50 (MDA-MB-435; MDA-MB-435): 2.27 µM | CC50 (MDA-MB-435; MDA-MB-435, read-out: LC50): 25.4 µM | IC50 (RXF 393; Homo sapiens, RXF 393): 2.24 µM | CC50 (RXF 393; Homo sapiens, RXF 393, read-out: LC50): 28.8 µM | lethality (RXF 393; RXF 393, single dose 10 μM): 28.21% | IC50 (LOX IMVI): 0.54 µM | CC50 (LOX IMVI; read-out: LC50): 76.2 µM | IC50 (SF-295; SF-295): 3.89 µM | CC50 (SF-295; SF-295, read-out: LC50): 43.2 µM | IC50 (786-0; 786-0): 3.85 µM | CC50 (786-0; 786-0, read-out: LC50): > 100 µM | IC50 (NCI-H460; Homo sapiens, NCI-H460): 2.24 µM | CC50 (NCI-H460; Homo sapiens, NCI-H460, read-out: LC50): 44.3 µM | lethality (NCI-H460; NCI-H460, single dose 10 μM): 3.51% | IC50 (SW-620; SW-620): 3.43 µM | CC50 (SW-620; SW-620, read-out: LC50): 75.8 µM | IC50 (OVCAR-5; OVCAR-5): 2.57 µM | CC50 (OVCAR-5; OVCAR-5, read-out: LC50): 27.2 µM | IC50 (MDA-MB-468; Homo sapiens, MDA-MB-468): 1.96 µM | CC50 (MDA-MB-468; Homo sapiens, MDA-MB-468, read-out: LC50): 54.3 µM | lethality (MDA-MB-468; MDA-MB-468, single dose 10 μM): 36.18% | IC50 (MDA-MB-231/ATCC; MDA-MB-231): 3.41 µM | CC50 (MDA-MB-231/ATCC; MDA-MB-231, read-out: LC50): 60 µM | IC50 (SNB-75; SNB-75): 1.84 µM | CC50 (SNB-75; SNB-75, read-out: LC50): 18.2 µM | IC50 (RPMI-8226; RPMI-8226): 3.2 µM | CC50 (RPMI-8226; RPMI-8226, read-out: LC50): > 100 µM | IC50 (KM12; KM12): 3.13 µM | CC50 (KM12; KM12, read-out: LC50): > 100 µM | IC50 (EKVX): 4.33 µM | CC50 (EKVX; read-out: LC50): 43.3 µM | IC50 (A549/ATCC; A549): 2.75 µM | CC50 (A549/ATCC; A549, read-out: LC50): 34.8 µM | IC50 (K-562; K562): 2.43 µM | CC50 (K-562; K562, read-out: LC50): > 100 µM | IC50 (DU-145; DU-145): 4.23 µM | CC50 (DU-145; DU-145, read-out: LC50): 65.1 µM | IC50 (HT29; HT-29): 3.5 µM | CC50 (HT29; HT-29, read-out: LC50): 64.7 µM | IC50 (IGROV1; IGROV-1): 3.56 µM | CC50 (IGROV1; IGROV-1, read-out: LC50): 72.4 µM | inhibition at 10 µM (colon cancer cell lines): 83 to 100% | IC50 (SNB-19; SNB-19): 3.65 µM | CC50 (SNB-19; SNB-19, read-out: LC50): 45.3 µM
